ChEMBL document CHEMBL1135129, “N-Tetrahydrofuroyl-(L)-phenylalanine derivatives as potent VLA-4 antagonists” (Bioorg Med Chem Lett, 2002)

Experiments:
Integrin alpha-4/beta-1 [1] = biological target: T1, Integrin alpha-4/beta-1 (Homo sapiens, UniProt P05556+P13612); assay: Inhibition of very late antigen-4 alpha4-beta1 (VLA-4), I-VCAM-Ig as radioligand; format: protein-complex assay
Integrin alpha-4/beta-1 [2] = biological target: T1, Integrin alpha-4/beta-1; assay: Inhibition of I-VCAM-Ig binding to Very late antigen 4 (VLA-4); format: protein-complex assay
[3] = Oral bioavailability in rat (Sprague-Dawley); format: ADME, organism-based; details: in vivo
[4] = Oral bioavailability in rat (Sprague-Dawley) (dose 2 mg/kg); format: ADME, organism-based; details: in vivo
[5] = Oral bioavailability in rat (Sprague-Dawley) (dose 1 mg/kg i.v.); format: ADME, organism-based; details: in vivo

T1 sequence (P05556 whole entry): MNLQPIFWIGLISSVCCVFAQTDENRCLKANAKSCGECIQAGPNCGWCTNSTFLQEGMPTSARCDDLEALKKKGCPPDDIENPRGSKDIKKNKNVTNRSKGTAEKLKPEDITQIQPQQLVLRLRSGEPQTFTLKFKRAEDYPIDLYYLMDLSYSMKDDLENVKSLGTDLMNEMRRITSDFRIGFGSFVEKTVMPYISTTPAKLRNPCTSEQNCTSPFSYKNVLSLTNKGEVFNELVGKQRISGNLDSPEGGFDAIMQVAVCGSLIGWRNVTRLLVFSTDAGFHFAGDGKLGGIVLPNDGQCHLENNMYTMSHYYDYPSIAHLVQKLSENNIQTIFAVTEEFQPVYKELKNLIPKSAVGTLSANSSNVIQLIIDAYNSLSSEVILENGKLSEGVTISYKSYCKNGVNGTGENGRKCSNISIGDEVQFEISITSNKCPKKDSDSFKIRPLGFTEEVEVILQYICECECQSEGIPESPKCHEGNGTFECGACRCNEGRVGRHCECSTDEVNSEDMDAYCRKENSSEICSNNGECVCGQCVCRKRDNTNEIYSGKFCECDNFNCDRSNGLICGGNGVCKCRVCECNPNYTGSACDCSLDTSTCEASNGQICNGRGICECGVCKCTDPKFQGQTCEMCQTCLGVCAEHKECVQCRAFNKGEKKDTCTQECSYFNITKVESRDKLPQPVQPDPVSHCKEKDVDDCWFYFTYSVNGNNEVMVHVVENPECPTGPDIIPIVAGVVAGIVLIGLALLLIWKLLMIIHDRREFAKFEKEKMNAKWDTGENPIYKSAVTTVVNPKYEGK
T1 sequence (P13612 whole entry): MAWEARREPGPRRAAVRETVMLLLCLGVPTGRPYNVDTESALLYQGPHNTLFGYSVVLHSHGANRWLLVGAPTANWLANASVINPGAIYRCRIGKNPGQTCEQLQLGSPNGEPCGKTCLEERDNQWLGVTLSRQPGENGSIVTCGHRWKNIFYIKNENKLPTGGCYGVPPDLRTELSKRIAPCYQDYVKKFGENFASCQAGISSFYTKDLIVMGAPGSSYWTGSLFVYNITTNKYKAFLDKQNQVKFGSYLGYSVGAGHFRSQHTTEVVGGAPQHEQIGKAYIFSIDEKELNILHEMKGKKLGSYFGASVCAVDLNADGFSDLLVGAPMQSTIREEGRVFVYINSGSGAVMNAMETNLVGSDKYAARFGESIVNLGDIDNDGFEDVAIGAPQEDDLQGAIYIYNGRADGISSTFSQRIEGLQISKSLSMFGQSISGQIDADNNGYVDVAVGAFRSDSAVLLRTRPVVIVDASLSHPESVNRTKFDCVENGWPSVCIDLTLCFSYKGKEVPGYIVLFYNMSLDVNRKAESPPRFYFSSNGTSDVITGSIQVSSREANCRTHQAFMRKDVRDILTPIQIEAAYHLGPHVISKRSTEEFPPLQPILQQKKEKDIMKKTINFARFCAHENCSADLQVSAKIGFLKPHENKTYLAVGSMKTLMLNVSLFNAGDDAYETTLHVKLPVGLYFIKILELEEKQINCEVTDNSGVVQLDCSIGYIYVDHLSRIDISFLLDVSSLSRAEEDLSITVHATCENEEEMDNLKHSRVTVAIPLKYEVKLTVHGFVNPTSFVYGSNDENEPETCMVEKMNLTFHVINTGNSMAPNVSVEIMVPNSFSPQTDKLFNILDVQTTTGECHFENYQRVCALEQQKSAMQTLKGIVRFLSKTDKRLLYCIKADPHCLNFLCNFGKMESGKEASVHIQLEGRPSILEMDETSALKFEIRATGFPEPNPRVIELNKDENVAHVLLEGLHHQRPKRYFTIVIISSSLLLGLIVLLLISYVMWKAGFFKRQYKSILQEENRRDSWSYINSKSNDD

SMILES | IC50 (Integrin alpha-4/beta-1 [1]) [nM] | also measured
COc1ccccc1-c1ccc(C[C@H](NC(=O)[C@@]2(C)CCCO2)C(=O)O)cc1 | – | IC50 (Integrin alpha-4/beta-1 [2]): 13.7 nM
COc1ccccc1-c1ccc(C[C@H](NC(=O)C2(C)CCCO2)C(=O)O)cc1 (stereo partly specified) | – | IC50 (Integrin alpha-4/beta-1 [2]): 3.9 nM; bioavailability [3]: 72%
COc1cccc(OC)c1-c1ccc(C[C@H](NC(=O)[C@@]2(C)CCCO2)C(=O)O)cc1 | – | bioavailability [4]: 42%; bioavailability [5]: 42%; IC50 (Integrin alpha-4/beta-1 [2]): 0.3 nM
COc1ccccc1-c1ccc(C[C@@H](NC(=O)[C@@]2(C)CCCO2)C(=O)O)cc1 | – | bioavailability [4]: 57%; bioavailability [5]: 57%; IC50 (Integrin alpha-4/beta-1 [2]): 2.7 nM
COc1ccccc1-c1ccc(C[C@H](NC(=O)N2CCCN2S(=O)(=O)c2cc(Cl)cc(Cl)c2)C(=O)O)cc1 | 0.88 | –
C[C@]1(C(=O)N[C@@H](Cc2ccc(-c3ccccc3OC3CC3)cc2)C(=O)O)CCCO1 | 3.9 | bioavailability [4]: 76%; bioavailability [5]: 76%
COc1ccccc1-c1ccc(C[C@H](NC(=O)C2(C)CCCS2(=O)=O)C(=O)O)cc1 (stereo partly specified) | 1.3 | bioavailability [3]: 6%
COc1ccccc1-c1ccc(C[C@H](NC(=O)[C@@H]2CCCN2)C(=O)O)cc1 | 11 | –
C[C@]1(C(=O)N[C@@H](Cc2ccc(NC(=O)c3c(Cl)cncc3Cl)cc2)C(=O)O)CCCO1 | 0.2 | –
C[C@]1(C(=O)N[C@@H](Cc2ccc(-n3ccccc3=O)cc2)C(=O)O)CCCO1 | 12.9 | bioavailability [4]: 27%; bioavailability [5]: 27%
C[C@]1(C(=O)N[C@@H](Cc2ccc(-c3c(OC4CC4)cccc3OC3CC3)cc2)C(=O)O)CCCO1 | 2.4 | –

Continued, in another order:

IC50 (Integrin alpha-4/beta-1 [1]) [nM] | SMILES | also measured
63 | COc1ccccc1-c1ccc(C[C@H](NC(=O)C2CCCC2)C(=O)O)cc1 | –
2.8 | COc1ccccc1-c1ccc(C[C@H](NC(=O)C2CCC(=O)N2)C(=O)O)cc1 (stereo partly specified) | –
2.1 | COc1ccccc1-c1ccc(C[C@H](NC(=O)C2CCCS2(=O)=O)C(=O)O)cc1 (stereo partly specified) | –
36 | COc1ccccc1-c1ccc(C[C@H](NC(=O)C2CCOC2)C(=O)O)cc1 (stereo partly specified) | –
17 | COc1ccccc1-c1ccc(C[C@H](NC(=O)N2CCCC2)C(=O)O)cc1 | –
1.7 | COc1ccccc1-c1ccc(C[C@H](NC(=O)C2CCCO2)C(=O)O)cc1 (stereo partly specified) | –
19.3 | COc1ccccc1-c1ccc(C[C@H](NC(=O)N2CCC=N2)C(=O)O)cc1 | –
4.1 | C[C@]1(C(=O)N[C@@H](Cc2ccc(-n3ccn(Cc4ccccc4)c3=O)cc2)C(=O)O)CCCO1 | –
11 | C[C@]1(C(=O)N[C@@H](Cc2ccc(-c3ccccc3C#N)cc2)C(=O)O)CCCO1 | –
4.9 | COc1ccccc1-c1ccc(C[C@H](NC(=O)C2CCCCO2)C(=O)O)cc1 (stereo partly specified) | –
